According to patent publication US6737383B1, “Herbicidal oxadiazolidines” (priority 1999, dated 2004):

Assays:
bedstraw = assay: Test B pre/postemergence bedstraw; format: in vivo, Galium aparine
Outline: (§1)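 Herbicidal effect was estimated by eye on a ten-point control scale after plants spent twelve to sixteen days in a greenhouse following soil or foliar treatment. Foliar sprays targeted plants at one to four leaves; all doses were formulated in a non-phytotoxic solvent with surfactant.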

blackgrass = assay: Test B pre/postemergence blackgrass; format: in vivo, Alopecurus myosuroides
Outline: as §1

surinam grass = assay: Test B pre/postemergence surinam grass; format: in vivo, Brachiaria decumbens
Outline: as §1

cocklebur = assay: Test B pre/postemergence cocklebur; format: in vivo, Xanthium strumarium
Outline: as §1

corn = assay: Test B pre/postemergence corn; format: in vivo, Zea mays
Outline: as §1

crabgrass = assay: Test B pre/postemergence crabgrass; format: in vivo, Digitaria sanguinalis
Outline: as §1

morningglory = assay: Test B pre/postemergence morningglory; format: in vivo, Ipomoea hederacea
Outline: as §1

pigweed = assay: Test B pre/postemergence pigweed; format: in vivo, Amaranthus retroflexus
Outline: as §1

rape = assay: Test B pre/postemergence rape; format: in vivo, Brassica napus
Outline: as §1

sugar beet = assay: Test B pre/postemergence sugar beet; format: in vivo, Beta vulgaris
Outline: as §1

velvetleaf = assay: Test B pre/postemergence velvetleaf; format: in vivo, Abutilon theophrasti
Outline: as §1

wheat = assay: Test B pre/postemergence wheat; format: in vivo, Triticum aestivum
Outline: as §1

wild oat = assay: Test B pre/postemergence wild oat; format: in vivo, Avena fatua
Outline: as §1

purple nutsedge = assay: Test B pre/postemergence purple nutsedge; format: in vivo, Cyperus rotundus
Outline: as §1

smallflower flatsedge = assay: Test B flood test smallflower flatsedge; format: in vivo, Cyperus difformis
Outline: (§2)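 Flood test on plants grown to the 2-leaf stage; treated plants kept in greenhouse twelve to sixteen days, then visually rated against controls on a 0 (no effect) to 10 (complete control) scale.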

duck salad = assay: Test B flood test duck salad; format: in vivo, Heteranthera limosa
Outline: as §2

[1] = Postemergence, Rate 125 g/ha, scale of 0 to 10 where 0 is no effect and 10 is complete control
[2] = Preemergence, Rate 62 g/ha, scale of 0 to 10 where 0 is no effect and 10 is complete control
[3] = Preemergence, Rate 125 g/ha, 0 is no effect, 10 is complete control
[4] = Preemergence, Rate 250 g/ha, scale 0 to 10, 0 is no effect, 10 is complete control
[5] = Preemergence, Rate 500 g/ha, scale 0 to 10 (0 no effect, 10 complete control)
[6] = Rate 62 g/ha, Postemergence, scale of 0 to 10 where 0 is no effect and 10 is complete control
[7] = Rate 250 g/ha, Postemergence, scale 0 to 10, 0 is no effect, 10 is complete control
[8] = Rate 500 g/ha, Postemergence, scale 0 to 10
[9] = Postemergence (flood test species), Rate 125 g/ha, scale of 0 to 10 where 0 is no effect and 10 is complete control
[10] = Rate 62 g/ha, Postemergence section, flood test species, scale of 0 to 10 where 0 is no effect and 10 is complete control
[11] = Rate 250 g/ha, Postemergence (flood test), scale 0 to 10, 0 is no effect, 10 is complete control
[12] = Rate 500 g/ha, listed under Postemergence (flood test species), scale 0 to 10

CC(C)N(C(=O)n1oc(=O)[nH]c1=O)c1ccc(F)cc1 [Compound 164]
Bedstraw plant response rating (bedstraw; [1]): 0
Bedstraw plant response rating (bedstraw; [2]): 0
Bedstraw plant response rating (0 to 10 scale) (bedstraw; [3]): 0
Bedstraw plant response rating (bedstraw; [4]): 0
Bedstraw plant response rating (bedstraw; [5]): 0
Bedstraw plant response rating (bedstraw; [6]): 0
Blackgrass plant response rating (blackgrass; [1]): 0
Blackgrass plant response rating (blackgrass; [2]): 0
Blackgrass plant response rating (0 to 10 scale) (blackgrass; [3]): 0
Blackgrass plant response rating (blackgrass; [4]): 0
Blackgrass plant response rating (blackgrass; [5]): 0
Blackgrass plant response rating (blackgrass; [6]): 0
Plant response rating, Blackgrass (blackgrass; [7]): 0
Blackgrass plant response rating (blackgrass; [8]): 0
B. signalgrass plant response rating (surinam grass; [1]): 0
B. signalgrass plant response rating (surinam grass; [2]): 0
B. signalgrass plant response rating (0 to 10 scale) (surinam grass; [3]): 0
B. signalgrass plant response rating (surinam grass; [4]): 0
B. signalgrass plant response rating (surinam grass; [5]): 0
B. signalgrass plant response rating (surinam grass; [6]): 0
Plant response rating, B. signalgrass (surinam grass; [7]): 0
B. signalgrass plant response rating (surinam grass; Rate 500 g/ha, Postemergence, scale 0 to 10, 0 no effect, 10 complete control): 0
Cocklebur plant response rating (cocklebur; [1]): 0
Cocklebur plant response rating (cocklebur; [2]): 0
Cocklebur plant response rating (0 to 10 scale) (cocklebur; [3]): 0
Cocklebur plant response rating (cocklebur; [4]): 0
Cocklebur plant response rating (cocklebur; [5]): 0
Cocklebur plant response rating (cocklebur; [6]): 0
Plant response rating, Cocklebur (cocklebur; [7]): 0
Cocklebur plant response rating (cocklebur; [8]): 0
Corn plant response rating (corn; [1]): 0
Corn plant response rating (corn; [2]): 0
Corn plant response rating (0 to 10 scale) (corn; [3]): 0
Corn plant response rating (corn; [4]): 0
Corn plant response rating (corn; [5]): 0
Corn plant response rating (corn; [6]): 0
Plant response rating, Corn (corn; [7]): 0
Corn plant response rating (corn; [8]): 0
Crabgrass plant response rating (crabgrass; [1]): 0
Crabgrass plant response rating (crabgrass; [2]): 0
Crabgrass plant response rating (0 to 10 scale) (crabgrass; [3]): 0
Crabgrass plant response rating (crabgrass; [4]): 0
Crabgrass plant response rating (crabgrass; [5]): 4
Crabgrass plant response rating (crabgrass; [6]): 0
Plant response rating, Crabgrass (crabgrass; [7]): 2
Crabgrass plant response rating (crabgrass; [8]): 9
Morningglory plant response rating (morningglory; [1]): 0
Morningglory plant response rating (morningglory; [2]): 0
Morningglory plant response rating (0 to 10 scale) (morningglory; [3]): 0
Morningglory plant response rating (morningglory; [4]): 0
Morningglory plant response rating (morningglory; [5]): 0
Morningglory plant response rating (morningglory; [6]): 0
Plant response rating, Morningglory (morningglory; [7]): 0
Morningglory plant response rating (morningglory; [8]): 2
Redroot pigweed plant response rating (pigweed; [1]): 0
Redroot pigweed plant response rating (pigweed; [2]): 0
Redroot pigweed plant response rating (0 to 10 scale) (pigweed; [3]): 0
Redroot pigweed plant response rating (pigweed; [4]): 0
Redroot pigweed plant response rating (pigweed; [5]): 0
Redroot pigweed plant response rating (pigweed; [6]): 0
Plant response rating, Redroot pigweed (pigweed; [7]): 0
Redroot pigweed plant response rating (pigweed; [8]): 0
Rape plant response rating (rape; [1]): 0
Rape plant response rating (rape; [2]): 0
Rape plant response rating (0 to 10 scale) (rape; [3]): 0
Rape plant response rating (rape; [4]): 0
Rape plant response rating (rape; [5]): 0
Rape plant response rating (rape; [6]): 0
Plant response rating, Rape (rape; [7]): 0
Rape plant response rating (rape; [8]): 0
Sugarbeets plant response rating (sugar beet; [1]): 0
Sugarbeets plant response rating (sugar beet; [2]): 0
Sugarbeets plant response rating (0 to 10 scale) (sugar beet; [3]): 0
Sugarbeets plant response rating (sugar beet; [4]): 0
Sugarbeets plant response rating (sugar beet; [5]): 0
Sugarbeets plant response rating (sugar beet; [6]): 0
Plant response rating, Sugarbeets (sugar beet; [7]): 0
Sugarbeets plant response rating (sugar beet; [8]): 0
Velvetleaf plant response rating (velvetleaf; [2]): 0
Velvetleaf plant response rating (0 to 10 scale) (velvetleaf; [3]): 0
Velvetleaf plant response rating (velvetleaf; [4]): 0
Velvetleaf plant response rating (velvetleaf; [5]): 0
Plant response rating, Velvetleaf (velvetleaf; [7]): 0
Velvetleaf plant response rating (velvetleaf; [8]): 0
Wheat plant response rating (wheat; [2]): 0
Wheat plant response rating (0 to 10 scale) (wheat; [3]): 0
Wheat plant response rating (wheat; [4]): 0
Wheat plant response rating (wheat; [5]): 0
Plant response rating, Wheat (wheat; [7]): 0
Wheat plant response rating (wheat; [8]): 0
Wild oats plant response rating (wild oat; [2]): 0
Wild oats plant response rating (0 to 10 scale) (wild oat; [3]): 0
Wild oats plant response rating (wild oat; [4]): 0
Wild oats plant response rating (wild oat; [5]): 0
Plant response rating, Wild oats (wild oat; [7]): 0
Wild oats plant response rating (wild oat; [8]): 0
Nutsedge plant response rating (purple nutsedge; [1]): 0
Nutsedge plant response rating (purple nutsedge; [2]): 0
Nutsedge plant response rating (0 to 10 scale) (purple nutsedge; [3]): 0
Nutsedge plant response rating (purple nutsedge; [4]): 0
Nutsedge plant response rating (purple nutsedge; [5]): 0
Nutsedge plant response rating (purple nutsedge; [6]): 0
Plant response rating, Nutsedge (purple nutsedge; [7]): 0
Nutsedge plant response rating (purple nutsedge; [8]): 0
S. Flatsedge plant response rating (smallflower flatsedge; [9]): 0
S. Flatsedge plant response rating (smallflower flatsedge; [10]): 0
Plant response rating, S. Flatsedge (smallflower flatsedge; [11]): 0
S. Flatsedge plant response rating (smallflower flatsedge; [12]): 0
Ducksalad plant response rating (duck salad; [9]): 0
Ducksalad plant response rating (duck salad; [10]): 0
Plant response rating, Ducksalad (duck salad; [11]): 0
Ducksalad plant response rating (duck salad; [12]): 0
